Experimental data from US9376499B2, “PAR-1 activation by metalloproteinase-1 (MMP-1)” (Tufts Medical Center, Inc., priority 2009, dated 2016).
Non-standard residues stand in square brackets, D forms with d. Residues, ends and D or L forms follow the SMILES beside them. No end group written: not given here. *: point of attachment. 4Abz = Nc1ccc(C(=O)O)cc1; NHOH = ON*

Experiments:
MAPKAP-K2 = assay: Collagen activation of phospho-MAPKAP-K2 in platelets (data not shown); assay type: cell-based, human
[1] = Angiogenesis in adventitia of abdominal aorta of ApoE-/- mice (CD31 whole mount immunostaining); assay type: in vivo, mouse; conditions: 15 weeks
Method: Angiogenesis may promote the progression of atherosclerosis and contribute to plaque instability and rupture. […] Angiogenesis was therefore evaluated in the adventitia of aortas from apoE−/− mice fed a high fat diet for 15 weeks and treated with either the MMP-1 collagenase inhibitor, MMP Inh-1 (FN-439) or the PAR1 antagonist, P1pal-7. The mice were then anesthetized with Ketamine/Xylazine and pressure fixed with 10% formalin. The abdominal aorta was isolated, removed and fixed for 1 hour with 10% formalin and adventitial fat was removed. The abdominal aorta were then whole mount immunostained for CD31, a marker for endothelial cells and 3D projection images were constructed from multiple confocal sections using the following procedure. Briefly, the tissue was blocked for 1 hour with 5% goat serum in Tris buffered saline containing 0.3% Triton-X 100 (TBST) and incubated overnight at 4° C. with primary antibody diluted 1:1000 in TBST. After several washes with TBST, the tissue was incubated with fluorescently tagged secondary antibody diluted in TBST for 4 hours. The tissue was washed and post-fixed with 4% paraformaldehyde for 10 minutes. The aorta was then cut lengthwise and splayed open onto a microscope slide with the adventitial side up. The tissue was whole mounted with Vectashield mounting media and imaged using a Leica TCS SP2 confocal microscope […]. Confocal images were constructed into 3D projections of Z-stacks. Quantification of images was performed using NIH ImageJ. Antibodies used were: hamster anti-mouse PECAM-1 (Chemicon) and Cy3-anti-hamster (Jackson Immunolabs).

[2] = Collagen-induced systemic platelet activation (thrombocytopenia) in guinea pigs; assay type: in vivo, guinea pig; conditions: i.v. P1pal-7 3 mg/kg or FN-439 10 mg/kg, 10 min before 200 μg collagen
Method: Animal experiments were performed in accordance with the National Institutes of Health guidelines and approved by the Tufts Medical Center Institutional Animal Care and Use Committee. 2-4 week old Hartley guinea pigs (170-260 g) were anesthetized by an i.p. injection of xylazine (10 mg/kg) plus ketamine (50 mg/kg) and then catheterized via the left jugular vein and injected (200 μL) with either vehicle (20% DMSO/80% water), P1pal-7 or FN-439. For determination of collagen-dependent systemic platelet activation, 10 min after administration of inhibitors, 200 μg collagen in 200 μL of PBS was delivered via the jugular vein. Ten min after collagen injection, blood was collected into sodium citrate (1% v/v final) from the contralateral jugular vein and platelet counts were measured with a Hemavet850. The enzymatic activity of active MMP-1 in supernatants and platelet lysates was determined using DQ collagen I as fluorogenic substrate in the presence or absence of 3 μM FN-439, or 20 μg/ml of control IgG or a MMP-1 blocking Ab (preincubated for 2 h at 37° C.), as indicated.
Intravascular platelet activation was then induced by an intravenous injection of collagen into the guinea pigs. Vehicle, P1pal-7 (3 mg/kg) or FN-439 (10 mg/kg) were delivered i.v. to the internal jugular vein of guinea pigs (n=6) and allowed to circulate for 10 min. […]

[3] = Carotid artery FeCl3 injury arterial thrombosis model; assay type: in vivo, guinea pig; conditions: for prolongation of the mean occlusion time: P1pal-7 alone 0.3 mg/kg, FN-439 alone 2.0 mg/kg i.v.
Text: To assess the efficacy on arterial thrombosis by blockade of thrombin, MMP-1, or PAR1, a standard carotid artery FeCl3 injury model was used in guinea pigs. FeCl3 causes denudation of the artery and exposure of type I collagen and other subendothelial matrix proteins. The effects of blocking thrombin with bivalirudin, MMP-1 with FN-439, and PAR1 with either the small molecule antagonist RWJ-56110 or the P1pal-7 pepducin on arterial thrombosis were then compared using a dopier probe.
For these arterial thrombosis experiments, 10 min after i.v. administration of vehicle (−), bivalirudin, RWJ-56110, P1 pal-7 or FN-439 (n=4-5) through the jugular vein at the indicated concentrations, the right carotid arteries were injured for 20 min using a 24 mm^2 piece of Bio-Rad Trans-Blot paper soaked in 20% FeCl3. Arterial flow 5 mm distal to the site of injury was measured with a 0.5 V Doppler probe (Transonic Systems). An arterial occlusion was defined as a flow rate of <0.01 V for ≧5 min. Doppler measurements were terminated at the 30 min time point following injury (* designates p<0.05).

platelets = assay: Platelet thrombus formation on collagen surface under arterial flow, heparin-anticoagulated whole blood; assay type: cell-based, human; conditions: heparin 10 U/mL; shear rate 1,000 s-1; FN-439 3 μM, RWJ-56110 1 μM, pepducins 3 μM, aspirin 1 mM
Method: Following incubation with inhibitors, the blood was perfused over a glass slide coated with fibrillar collagen type I.
A flow chamber (Glycotech) with Type-I fibrillar collagen-coated glass slides was mounted on the stage of an IMT-2 inverted microscope (Olympus) equipped with Retiga 1300 digital camera (QImaging) and 40× objective. One of the flow chamber inlets was connected to a syringe pump (Harvard Apparatus) calibrated to create a shear rate of 1,000^s-1. The whole blood pretreated with the various pharmacologic inhibitors was then perfused over the collagen-coated glass slide. After 2-15 min of perfusion, blood was removed from the flow chamber by gentle displacement with PIPES buffer and images of 8-10 fields were acquired using OpenLab software (Improvision). Acquired images were further analyzed using NIH Image 1.63 software. Images were first sharpened and the edges of separate platelets and platelet aggregates were determined. Following the adjustment of threshold, images were converted into the binary format, and the particle analysis function was activated to highlight the regions covered by platelets with the sensitivity set to one single adherent thrombocyte. For the conversion of pixels into square micrometers, a calibration curve was built using 2.5, 6, 20, 25, and 45 μm polystyrene beads (Polyscience) using acquisition conditions identical to the experimental. The mean area of formed thrombus was determined at 7 min. Area measurements in FIG. 6B represent the mean±s.e. of three separate experiments from five different blood donors.

Row | Compound | block of collagen-activation of phospho-MAPKAP-K2 (MAPKAP-K2) | amount of CD31-positive vessels [1] | number of branch points per vessel area [1] | number of vascular bundles in the adventitia of the aorta [1] | protection against collagen-induced thrombocytopenia / intravascular platelet activation [2] | prolongation of the mean occlusion time [3] [%] | attenuation of growth rate and size of platelet aggregate strings (platelets) [%] | additional prolongation of arterial occlusion time in combination ([3]; 0.13 mg/kg P1pal-7 supplemented with 0.18 mg/kg bivalirudin)
1 | CC(C)C[C@@H](NC(=O)[C@@H]1CCCN1C(=O)CNC(=O)c1ccc(N)cc1)C(=O)N[C@H](C)C(=O)NO [FN-439] (H-[4Abz]GP[dL][dA]-{NHOH}) | blocked | significantly reduced | significantly inhibited | significantly reduced | significant protection | 90 | ~75 | 
2 | P1pal-7: PAR1 i3 loop pepducin lipopeptide, KKSRALF (SEQ ID NO. 2), palmitate (also: palmitate, site not given here) | blocked | significantly reduced | significantly inhibited | significantly reduced | almost completely protected | 80 | ~75 | no additional prolongation
